This is an account of results in publication PMC8047747 (ACS Omega, 2021).

Data set [1] deals with Mycobacterium tuberculosis H37Rv (ATCC27294). The data set can be described thus: microbe, parasite or virus in culture. In kind it is cell-based.
The nature of a further data set: in vitro. Particulars: mouse.
In data set [2] the test system is mouse macrophage RAW 264.7 cells.
Data set [3] deals with M. tuberculosis H37Rv nutrient-starved culture. In kind it is cell-based, Mycobacterium tuberculosis.
Setting [4] is: Mycobacterium tuberculosis, ATCC27294|H37RV.
Where [5] appears, read: RAW 264.7 cells, 50 μg/mL, 48 hr, MTT.

In brackets after ≈: the same amount, converted by molar mass. Like-named read-outs stand apart in the source and are kept apart here. Where only a bound is given, the exact number is not on record here.

Regarding `O=[N+]([O-])c1ccccc1S(=O)(=O)N1CCN(C(c2ccccc2)c2ccccc2)CC1` [7b, 1-Benzhydryl-4-((2-nitrophenyl)sulfonyl)piperazine], the MIC in data set [1] (setting [4]) is > 25 µg/mL.

On to `O=C(C1CCN(S(=O)(=O)c2ccccc2[N+](=O)[O-])CC1)N1CCN(C(c2ccccc2)c2ccccc2)CC1` [7p, (4-Benzhydrylpiperazin-1-yl) (1-((2-Nitrophenyl)sulfonyl)piperidin-4-yl)methanone], for which the MIC in data set [1] (setting [4]) is > 25 µg/mL.

The IC50 is the concentration at which inhibition is half-maximal. A lower IC50 goes with higher potency. `NNC(=O)c1ccncc1` [Isoniazid, reference compound] displayed an MIC in data set [1] (Mtb H37Rv, repeated in Table 2) of 0.05 µg/mL (≈ 0.365 µM). In “in vitro”, the IC50 is > 25 µg/mL. For the same molecule, the “% cell inhibition at 50 μg/mL” value in data set [2] (setting [5]) is 97%.

As for `O=C(CCNS(=O)(=O)c1ccc([N+](=O)[O-])cc1[N+](=O)[O-])N1CCN(C(c2ccc(F)cc2)c2ccc(F)cc2)CC1` [7l, N-(3-(4-(Bis(4-fluorophenyl)methyl)piperazin-1-yl)-3-oxopropyl)-2,4-dinitrobenzene Sulfonamide], the MIC in data set [1] (Mtb H37Rv, repeated in Table 2) is 0.78 µg/mL (≈ 1.32 µM); in data set [1] (setting [4]), 0.78 µg/mL (≈ 1.32 µM). Moreover, in “in vitro”, the IC50 is > 50 µg/mL. For the same molecule, the “% cell inhibition at 50 μg/mL” value in data set [2] (setting [5]) is on record as 60.2%.

Turning to `O=C(C1CCN(S(=O)(=O)c2ccc([N+](=O)[O-])cc2[N+](=O)[O-])CC1)N1CCN(C(c2ccc(F)cc2)c2ccc(F)cc2)CC1` [7r, (4-(Bis(4-fluorophenyl)methyl)piperazin-1-yl) (1-((2,4-Nitrophenyl)sulfonyl)piperidin-4-yl)methanone], the MIC in data set [1] came out at 1.56 µg/mL (≈ 2.48 µM). In data set [2], the “% cell inhibition at 50 μg/mL” value is reported as 57.2% and the IC50 approximation is >50 µg/mL. Also, the “nutrient starvation (log reduction)” value in data set [3] amounted to 2.2 folds.

Turning to `O=C(C1CCCN(S(=O)(=O)c2ccc([N+](=O)[O-])cc2[N+](=O)[O-])C1)N1CCN(C(c2ccc(F)cc2)c2ccc(F)cc2)CC1` (stereo not shown) [7v, (4-(Bis(4-fluorophenyl)methyl)piperazin-1-yl) (1-((2,4-Dinitrophenyl)sulfonyl)piperidin-3-yl)methanone], the MIC amounted to 0.78 µg/mL (≈ 1.24 µM) in data set [1] (Mtb H37Rv, repeated in Table 2) and 0.78 µg/mL (≈ 1.24 µM) in data set [1] (setting [4]). Moreover, the half-inhibitory concentration (IC50) in the data set “in vitro” was > 50 µg/mL. Moreover, the “% cell inhibition at 50 μg/mL” value in data set [2] (setting [5]) worked out at 55.7%.

`O=C(C1CCCN(S(=O)(=O)c2ccc([N+](=O)[O-])cc2)C1)N1CCN(C(c2ccccc2)c2ccccc2)CC1` (stereo not shown) [7u, (4-Benzhydrylpiperazin-1-yl) (1-((4-Nitrophenyl)sulfonyl)piperidin-3-yl)methanone]: the MIC in data set [1] (setting [4]) is > 25 µg/mL.

Take `O=C(C1CCN(S(=O)(=O)c2ccc([N+](=O)[O-])cc2)CC1)N1CCN(C(c2ccccc2)c2ccccc2)CC1` [7q, (4-Benzhydrylpiperazin-1-yl) (1-((4-Nitrophenyl)sulfonyl)piperidin-4-yl)methanone]: in data set [1] (setting [4]), the MIC was > 25 µg/mL.

Consider `O=C(CNS(=O)(=O)c1ccc([N+](=O)[O-])cc1[N+](=O)[O-])N1CCN(C(c2ccccc2)c2ccccc2)CC1` [7g, N-(2-(4-Benzhydrylpiperazin-1-yl)-2-oxoethyl)-2,4-dinitrobenzenesulfonamide], for which the MIC in data set [1] (setting [4]) was found to be 12.5 µg/mL (≈ 23.2 µM).

In turn, `CC[C@@H](CO)NCCN[C@@H](CC)CO` [Ethambutol, reference compound] returned an MIC in data set [1] (setting [4]) of 1.56 µg/mL (≈ 7.64 µM).

Take `O=[N+]([O-])c1ccc(S(=O)(=O)N2CCN(C(c3ccccc3)c3ccccc3)CC2)c([N+](=O)[O-])c1` [7a, 1-Benzhydryl-4-((2,4-dinitrophenyl)sulfonyl)piperazine]: the MIC was found to be 1.56 µg/mL (≈ 3.23 µM) in data set [1] (Mtb H37Rv, repeated in Table 2) and 1.56 µg/mL (≈ 3.23 µM) in data set [1] (setting [4]). Moreover, the IC50 in “in vitro” was > 50 µg/mL. For the same molecule, in data set [2] (setting [5]), the “% cell inhibition at 50 μg/mL” value amounted to 57.6%.

Turning to `O=C(CCCNS(=O)(=O)c1ccc([N+](=O)[O-])cc1[N+](=O)[O-])N1CCN(C(c2ccc(F)cc2)c2ccc(F)cc2)CC1` [7aa, N-(4-(4-(Bis(4-fluorophenyl)methyl)piperazin-1-yl)-4-oxobutyl)-2,4-dinitrobenzene Sulfonamide], the MIC is 0.78 µg/mL (≈ 1.29 µM) in data set [1] (Mtb H37Rv, repeated in Table 2) and 0.78 µg/mL (≈ 1.29 µM) in data set [1] (setting [4]). Moreover, the IC50 in the data set “in vitro” was > 50 µg/mL. Further, in data set [2] (setting [5]), the “% cell inhibition at 50 μg/mL” value is 59.2%.

For `O=C(C1CCN(S(=O)(=O)c2ccc([N+](=O)[O-])cc2[N+](=O)[O-])C1)N1CCN(C(c2ccccc2)c2ccccc2)CC1` (stereo not shown) [7y, (4-Benzhydrylpiperazin-1-yl) (1-((2,4-Dinitrophenyl)sulfonyl)pyrrolidin-3-yl)methanone], the MIC in data set [1] (Mtb H37Rv, repeated in Table 2) is 0.78 µg/mL (≈ 1.35 µM); in data set [1] (setting [4]), 0.78 µg/mL (≈ 1.35 µM). In addition, the IC50 in “in vitro” was > 50 µg/mL. In addition, the “% cell inhibition at 50 μg/mL” value in data set [2] (setting [5]) amounted to 59.6%.

In the case of `O=[N+]([O-])c1ccc(S(=O)(=O)N2CCN(C(c3ccc(F)cc3)c3ccc(F)cc3)CC2)c([N+](=O)[O-])c1` [7d, 1-(Bis(4-fluorophenyl)methyl)-4-((2,4-dinitrophenyl)sulfonyl)piperazine], in data set [1] (setting [4]), the MIC was > 25 µg/mL.

As to `O=C(C1CCCN(S(=O)(=O)c2ccccc2[N+](=O)[O-])C1)N1CCN(C(c2ccccc2)c2ccccc2)CC1` (stereo not shown) [7t, (4-Benzhydrylpiperazin-1-yl) (1-((2-Nitrophenyl)sulfonyl)piperidin-3-yl)methanone], the MIC in data set [1] (setting [4]) is > 25 µg/mL.

Turning to `O=C(C1CCCN(S(=O)(=O)c2ccc([N+](=O)[O-])cc2[N+](=O)[O-])C1)N1CCN(C(c2ccccc2)c2ccccc2)CC1` (stereo not shown) [7s, (4-Benzhydrylpiperazin-1-yl) (1-((2,4-Dinitrophenyl)sulfonyl)piperidin-3-yl)methanone], the MIC amounted to 0.78 µg/mL (≈ 1.31 µM) in data set [1] (Mtb H37Rv, repeated in Table 2) and 0.78 µg/mL (≈ 1.31 µM) in data set [1] (setting [4]). Further, the IC50 in “in vitro” was > 50 µg/mL. The “% cell inhibition at 50 μg/mL” value in data set [2] (setting [5]) is given as 59.2%.

In the case of `O=C(C1CCN(S(=O)(=O)c2ccc([N+](=O)[O-])cc2[N+](=O)[O-])CC1)N1CCN(C(c2ccccc2)c2ccccc2)CC1` [7o, (4-Benzhydrylpiperazin-1-yl) (1-((2,4-dinitrophenyl)sulfonyl)piperidin-4-yl)methanone], the MIC was 0.78 µg/mL (≈ 1.31 µM) in data set [1] (Mtb H37Rv, repeated in Table 2) and 0.78 µg/mL (≈ 1.31 µM) in data set [1] (setting [4]). The IC50 in the data set “in vitro” was > 50 µg/mL. For the same molecule, in data set [2] (setting [5]), the “% cell inhibition at 50 μg/mL” value amounted to 57.2%.

Take `O=C(CCNS(=O)(=O)c1ccc([N+](=O)[O-])cc1[N+](=O)[O-])N1CCN(C(c2ccccc2)c2ccccc2)CC1` [7k, N-(3-(4-Benzhydrylpiperazin-1-yl)-3-oxopropyl)-2,4-dinitrobenzenesulfonamide]: the MIC is 0.78 µg/mL (≈ 1.41 µM) in data set [1] (Mtb H37Rv, repeated in Table 2) and 0.78 µg/mL (≈ 1.41 µM) in data set [1] (setting [4]). In addition, the IC50 in “in vitro” was > 50 µg/mL. Further, the “% cell inhibition at 50 μg/mL” value in data set [2] (setting [5]) came out at 61.4%.

In the case of `O=[N+]([O-])c1ccccc1S(=O)(=O)N1CCN(C(c2ccc(F)cc2)c2ccc(F)cc2)CC1` [7e, 1-(Bis(4-fluorophenyl)methyl)-4-((2-nitrophenyl)sulfonyl)piperazine], the MIC in data set [1] (setting [4]) was > 25 µg/mL.

As to `O=[N+]([O-])c1ccc(S(=O)(=O)N2CCN(C(c3ccc(F)cc3)c3ccc(F)cc3)CC2)cc1` [7f, 1-(Bis(4-fluorophenyl)methyl)-4-((4-nitrophenyl)sulfonyl)piperazine], in data set [1] (setting [4]), the MIC is > 25 µg/mL.

On to `CO[C@H]1/C=C/O[C@@]2(C)Oc3c(C)c(O)c4c(O)c(c(/C=N/N5CCN(C)CC5)c(O)c4c3C2=O)NC(=O)/C(C)=C\C=C\[C@H](C)[C@H](O)[C@@H](C)[C@@H](O)[C@@H](C)[C@H](OC(C)=O)[C@@H]1C` [Rifampicin, reference compound], for which the MIC stood at 0.10 µg/mL (≈ 0.122 µM) in data set [1] (Mtb H37Rv strain, triplicate, Table 1 and text); 0.1 µg/mL (≈ 0.122 µM) in data set [1] (Mtb H37Rv, repeated in Table 2); 0.1 µg/mL (≈ 0.122 µM) in data set [1] (setting [4]). Also, in the data set “in vitro”, the IC50 is > 25 µg/mL. Besides, in data set [2] (setting [5]), the “% cell inhibition at 50 μg/mL” value turned out to be 90%.

As to `O=[N+]([O-])c1ccc(S(=O)(=O)N2CCN(C(c3ccccc3)c3ccccc3)CC2)cc1` [7c, 1-Benzhydryl-4-((4-nitrophenyl)sulfonyl)piperazine], the MIC in data set [1] (setting [4]) was > 25 µg/mL.
